Measured values as given in ChEMBL document CHEMBL1201862, “PubChem BioAssay data set” (2004).
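These data come from cells grown in 96-well plates and exposed to compound for 48 hours at five concentrations. The concentration for 50% growth inhibition is given as GI50.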 Activity calls are given as the source filed them. Rule as the data show it: active = GI50 up to about 1.1 µM and inactive = higher.

What was measured:
Test in all cases: DTP human tumour cell line panel, 48 h
MDA-MB-435 = test system: MDA-MB-435
HOP-62 = test system: HOP-62
SF-268 = test system: SF-268
NCI-H226 = test system: NCI-H226
SW-620 = test system: SW-620
NCI/ADR-RES = test system: NCI/ADR-RES
NCI-H23 = test system: NCI-H23
T47D = test system: T47D
K562 = test system: K562
MCF7 = test system: MCF7
SF-295 = test system: SF-295
KM12 = test system: KM12
MOLT-4 = test system: MOLT-4
HCT-15 = test system: HCT-15
PC-3 = test system: PC-3
SNB-19 = test system: SNB-19
M14 = test system: M14
A549 = test system: A549
HT-29 = test system: HT-29
OVCAR-4 = test system: OVCAR-4
786-0 = test system: 786-0
OVCAR-8 = test system: OVCAR-8
UO-31 = test system: UO-31
SK-OV-3 = test system: SK-OV-3
SK-MEL-28 = test system: SK-MEL-28
SF-539 = test system: SF-539
COLO 205 = test system: COLO 205
UACC-257 = test system: UACC-257
RPMI-8226 = test system: RPMI-8226
UACC-62 = test system: UACC-62
ACHN = test system: ACHN
NCI-H460 = test system: NCI-H460
U-251 = test system: U-251
BT-549 = test system: BT-549
SK-MEL-2 = test system: SK-MEL-2
A498 = test system: A498
SNB-75 = test system: SNB-75
MDA-MB-231 = test system: MDA-MB-231
Hs-578T = test system: Hs-578T
EKVX = test system: EKVX
SN12C = test system: SN12C
CCRF-CEM = test system: CCRF-CEM
HCC 2998 = test system: HCC 2998
DU-145 = test system: DU-145
MDA-N = test system: MDA-N
LOX IMVI = test system: LOX IMVI
RXF 393 = test system: RXF 393
HCT-116 = test system: HCT-116
OVCAR-3 = test system: OVCAR-3
Malme-3M = test system: Malme-3M
CAKI-1 = test system: CAKI-1
OVCAR-5 = test system: OVCAR-5

Measured: GI50

O=C1c2ccccc2-c2c1c(-c1ccc(F)cc1)nc1ccc3ccccc3c21
inactive: MDA-MB-435 > 100 µM | HOP-62 > 100 µM | SF-268 > 100 µM | NCI-H226 > 100 µM | SW-620 > 100 µM | NCI/ADR-RES > 100 µM | NCI-H23 > 100 µM | T47D > 100 µM | K562 > 100 µM | MCF7 > 100 µM | SF-295 > 100 µM | KM12 > 100 µM | MOLT-4 > 100 µM | PC-3 > 100 µM | SNB-19 > 100 µM | M14 > 100 µM | A549 > 100 µM | HT-29 > 100 µM | OVCAR-4 > 100 µM | 786-0 > 100 µM | OVCAR-8 > 100 µM | UO-31 > 100 µM | SK-OV-3 > 100 µM | SK-MEL-28 > 100 µM | SF-539 > 100 µM | COLO 205 > 100 µM | UACC-257 > 100 µM | RPMI-8226 > 100 µM | UACC-62 > 100 µM | ACHN > 100 µM | NCI-H460 > 100 µM | U-251 > 100 µM | BT-549 > 100 µM | SK-MEL-2 > 100 µM | A498 > 100 µM | SNB-75 > 100 µM | MDA-MB-231 > 100 µM | Hs-578T > 100 µM | EKVX > 100 µM | SN12C > 100 µM | CCRF-CEM > 100 µM | HCC 2998 > 100 µM | DU-145 > 100 µM | MDA-N > 100 µM | LOX IMVI > 100 µM | RXF 393 > 100 µM | HCT-116 > 100 µM | OVCAR-3 > 100 µM | Malme-3M > 100 µM | CAKI-1 > 100 µM | OVCAR-5 > 100 µM
> 100 µM: HCT-15
